In patent US6737383B1, “Herbicidal oxadiazolidines” (priority 1999, dated 2004):

Tests used:
blackgrass = experiment: Test B pre/postemergence blackgrass; assay type: in vivo, Alopecurus myosuroides
Method in brief: (§1)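 Herbicidal effect was estimated by eye on a ten-point control scale after plants spent twelve to sixteen days in a greenhouse following soil or foliar treatment. Foliar sprays targeted plants at one to four leaves; all doses were formulated in a non-phytotoxic solvent with surfactant.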

surinam grass = experiment: Test B pre/postemergence surinam grass; assay type: in vivo, Brachiaria decumbens
Method in brief: as §1

cocklebur = experiment: Test B pre/postemergence cocklebur; assay type: in vivo, Xanthium strumarium
Method in brief: as §1

crabgrass = experiment: Test B pre/postemergence crabgrass; assay type: in vivo, Digitaria sanguinalis
Method in brief: as §1

giant foxtail = experiment: Test B pre/postemergence giant foxtail; assay type: in vivo, Setaria faberii
Method in brief: as §1

morningglory = experiment: Test B pre/postemergence morningglory; assay type: in vivo, Ipomoea hederacea
Method in brief: as §1

pigweed = experiment: Test B pre/postemergence pigweed; assay type: in vivo, Amaranthus retroflexus
Method in brief: as §1

rape = experiment: Test B pre/postemergence rape; assay type: in vivo, Brassica napus
Method in brief: as §1

sugar beet = experiment: Test B pre/postemergence sugar beet; assay type: in vivo, Beta vulgaris
Method in brief: as §1

velvetleaf = experiment: Test B pre/postemergence velvetleaf; assay type: in vivo, Abutilon theophrasti
Method in brief: as §1

wheat = experiment: Test B pre/postemergence wheat; assay type: in vivo, Triticum aestivum
Method in brief: as §1

wild oat = experiment: Test B pre/postemergence wild oat; assay type: in vivo, Avena fatua
Method in brief: as §1

purple nutsedge = experiment: Test B pre/postemergence purple nutsedge; assay type: in vivo, Cyperus rotundus
Method in brief: as §1

rice = experiment: Test B flood test rice; assay type: in vivo, Oryza sativa
Method in brief: (§2)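 Flood test on plants grown to the 2-leaf stage; treated plants kept in greenhouse twelve to sixteen days, then visually rated against controls on a 0 (no effect) to 10 (complete control) scale.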

smallflower flatsedge = experiment: Test B flood test smallflower flatsedge; assay type: in vivo, Cyperus difformis
Method in brief: as §2

bamyardgrass = experiment: Test B flood test barnyardgrass; assay type: in vivo, Echinochloa crus-galli
Method in brief: as §2

[1] = Postemergence, Rate 62 g/ha, scale 0 to 10, 0 is no effect, 10 is complete control
[2] = Postemergence, Rate 125 g/ha, scale of 0 to 10 where 0 is no effect and 10 is complete control
[3] = Postemergence, Rate 250 g/ha, scale of 0 to 10, 0 is no effect, 10 is complete control
[4] = Postemergence, Rate 500 g/ha, scale of 0 to 10 where 0 is no effect and 10 is complete control
[5] = Preemergence, Rate 62 g/ha, scale of 0 to 10 where 0 is no effect and 10 is complete control
[6] = Preemergence, Rate 125 g/ha, scale of 0 to 10 where 0 is no effect and 10 is complete control
[7] = Preemergence, Rate 250 g/ha, scale 0 to 10 (0 no effect, 10 complete control)
[8] = Preemergence, Rate 500 g/ha, scale of 0 to 10 where 0 is no effect and 10 is complete control
[9] = Rate 62 g/ha, flood test species, Pre-emergence, visual evaluation after twelve to sixteen days
[10] = Rate 125 g/ha, under heading Pre-emergence, flood test species, visual evaluation after twelve to sixteen days
[11] = Rate 250 g/ha, Pre-emergence (flood test species), scale 0 to 10, 0 is no effect, 10 is complete control
[12] = Rate 500 g/ha, Pre-emergence section of Table B, 0 to 10 scale (0 no effect, 10 complete control)

CC(C)N(C(=O)n1oc(=O)n(CC(=O)C2CC2)c1=O)c1ccc(Cl)cc1 [Compound 639]
Plant response rating, Blackgrass (blackgrass; [1]): 0
Plant response rating, Blackgrass (blackgrass; [2]): 0
Blackgrass plant response rating (blackgrass; [3]): 2
Plant response rating, Blackgrass (blackgrass; [4]): 6
Blackgrass plant response rating (blackgrass; [5]): 0
Blackgrass plant response rating (blackgrass; [6]): 0
Plant response rating, Blackgrass (blackgrass; [7]): 2
Plant response rating, Blackgrass (blackgrass; [8]): 2
Plant response rating, B. signalgrass (surinam grass; [1]): 0
Plant response rating, B. signalgrass (surinam grass; [2]): 0
B. signalgrass plant response rating (surinam grass; [3]): 0
Plant response rating, B. signalgrass (surinam grass; [4]): 2
B. signalgrass plant response rating (surinam grass; [5]): 0
B. signalgrass plant response rating (surinam grass; [6]): 0
Plant response rating, B. signalgrass (surinam grass; [7]): 5
Plant response rating, B. signalgrass (surinam grass; [8]): 7
Plant response rating, Cocklebur (cocklebur; [1]): 0
Plant response rating, Cocklebur (cocklebur; [2]): 0
Cocklebur plant response rating (cocklebur; [3]): 2
Plant response rating, Cocklebur (cocklebur; [4]): 2
Cocklebur plant response rating (cocklebur; [5]): 0
Cocklebur plant response rating (cocklebur; [6]): 0
Plant response rating, Cocklebur (cocklebur; [7]): 0
Plant response rating, Cocklebur (cocklebur; [8]): 2
Plant response rating, Crabgrass (crabgrass; [1]): 0
Crabgrass plant response rating (crabgrass; [3]): 2
Plant response rating, Crabgrass (crabgrass; [4]): 8
Crabgrass plant response rating (crabgrass; [5]): 7
Crabgrass plant response rating (crabgrass; [6]): 7
Plant response rating, Crabgrass (crabgrass; [7]): 9
Plant response rating, Crabgrass (crabgrass; [8]): 9
Plant response rating, Giant foxtail (giant foxtail; [1]): 0
Plant response rating, Giant foxtail (giant foxtail; [2]): 0
Giant foxtail plant response rating (giant foxtail; [3]): 6
Plant response rating, Giant foxtail (giant foxtail; [4]): 7
Giant foxtail plant response rating (giant foxtail; [5]): 7
Giant foxtail plant response rating (giant foxtail; [6]): 9
Plant response rating, Giant foxtail (giant foxtail; [7]): 9
Plant response rating, Giant foxtail (giant foxtail; [8]): 9
Plant response rating, Morningglory (morningglory; [1]): 0
Plant response rating, Morningglory (morningglory; [2]): 3
Morningglory plant response rating (morningglory; [3]): 7
Plant response rating, Morningglory (morningglory; [4]): 7
Morningglory plant response rating (morningglory; [5]): 0
Morningglory plant response rating (morningglory; [6]): 0
Plant response rating, Morningglory (morningglory; [7]): 0
Plant response rating, Morningglory (morningglory; [8]): 0
Plant response rating, Redroot pigweed (pigweed; [1]): 3
Plant response rating, Redroot pigweed (pigweed; [2]): 4
Redroot pigweed plant response rating (pigweed; [3]): 4
Redroot pigweed plant response rating (pigweed; [5]): 0
Redroot pigweed plant response rating (pigweed; [6]): 0
Plant response rating, Redroot pigweed (pigweed; [7]): 2
Plant response rating, Redroot pigweed (pigweed; [8]): 10
Plant response rating, Rape (rape; [1]): 0
Plant response rating, Rape (rape; [2]): 0
Rape plant response rating (rape; [3]): 0
Plant response rating, Rape (rape; [4]): 3
Rape plant response rating (rape; [5]): 0
Rape plant response rating (rape; [6]): 0
Plant response rating, Rape (rape; [7]): 3
Plant response rating, Rape (rape; [8]): 10
Plant response rating, Sugarbeets (sugar beet; [1]): 0
Plant response rating, Sugarbeets (sugar beet; [2]): 0
Sugarbeets plant response rating (sugar beet; [3]): 0
Sugarbeets plant response rating (sugar beet; [5]): 0
Sugarbeets plant response rating (sugar beet; [6]): 0
Plant response rating, Sugarbeets (sugar beet; [7]): 0
Plant response rating, Sugarbeets (sugar beet; [8]): 6
Plant response rating, Velvetleaf (velvetleaf; [1]): 0
Plant response rating, Velvetleaf (velvetleaf; [2]): 0
Velvetleaf plant response rating (velvetleaf; [3]): 0
Velvetleaf plant response rating (velvetleaf; [5]): 0
Velvetleaf plant response rating (velvetleaf; [6]): 0
Plant response rating, Velvetleaf (velvetleaf; [7]): 0
Plant response rating, Velvetleaf (velvetleaf; [8]): 3
Plant response rating, Wheat (wheat; [1]): 0
Plant response rating, Wheat (wheat; [2]): 0
Wheat plant response rating (wheat; [3]): 0
Wheat plant response rating (wheat; [5]): 0
Wheat plant response rating (wheat; [6]): 0
Plant response rating, Wheat (wheat; [7]): 0
Plant response rating, Wheat (wheat; [8]): 0
Plant response rating, Wild oats (wild oat; [1]): 1
Plant response rating, Wild oats (wild oat; [2]): 1
Wild oats plant response rating (wild oat; [3]): 1
Wild oats plant response rating (wild oat; [5]): 0
Wild oats plant response rating (wild oat; [6]): 0
Plant response rating, Wild oats (wild oat; [7]): 0
Plant response rating, Wild oats (wild oat; [8]): 3
Plant response rating, Nutsedge (purple nutsedge; [1]): 0
Plant response rating, Nutsedge (purple nutsedge; [2]): 0
Nutsedge plant response rating (purple nutsedge; [5]): 0
Nutsedge plant response rating (purple nutsedge; [6]): 0
Plant response rating, Nutsedge (purple nutsedge; [7]): 0
Plant response rating, Nutsedge (purple nutsedge; [8]): 0
Plant response rating, Rice (0 to 10 scale, 0 is no effect, 10 is complete control) (rice; [9]): 0
Rice plant response rating (0 to 10 scale, 0 is no effect, 10 is complete control) (rice; [10]): 0
Rice plant response rating (rice; [11]): 0
Rice plant response rating (rice; [12]): 0
Plant response rating, S. Flatsedge (0 to 10 scale, 0 is no effect, 10 is complete control) (smallflower flatsedge; [9]): 0
S. Flatsedge plant response rating (0 to 10 scale, 0 is no effect, 10 is complete control) (smallflower flatsedge; [10]): 0
S. Flatsedge plant response rating (smallflower flatsedge; [11]): 0
S. Flatsedge plant response rating (smallflower flatsedge; [12]): 0
Plant response rating, Barnyardgrass (0 to 10 scale, 0 is no effect, 10 is complete control) (bamyardgrass; [9]): 0
Barnyardgrass plant response rating (0 to 10 scale, 0 is no effect, 10 is complete control) (bamyardgrass; [10]): 0
Barnyardgrass plant response rating (bamyardgrass; [11]): 0
Barnyardgrass plant response rating (bamyardgrass; [12]): 0
